These are literature values, as cited in patent US20130220225A1, “BAITING METHOD AND COMPOSITION” (priority 2008, published 2013).

Data set [1] relates to Eagle (Aquila chrysaetos). Conditions: Oral.
For data set [2], the system named is Tammar wallaby (Macropus eugenii). The conditions noted are these: Oral.
Data set [3] has as its system Badger (Nth Am.) (Taxidea taxus). The conditions noted are these: Oral.
In data set [4] the test system is Bobcat (Lynx rufus). Conditions: Oral.
The subject of data set [5] is Rat (male) (Rattus norvegicus). Conditions: Oral.
For data set [6], the system named is Magpie (black-billed) (Pica pica). The conditions noted are these: Oral.
In data set [7] the test system is Fox (kit) (Vulpes velox). The conditions noted are these: Oral.
The subject of data set [8] is Raccoon (Procyon lotor). The conditions noted are these: Oral.
The subject of data set [9] is Crow (Corvus brachyrhynchos). The conditions noted are these: Oral.
For data set [10], the system named is Mouse (Mus domesticus).
For data set [11], the system named is Mallard (duck) (Anas platyrhrynchos). Conditions: Oral.
Data set [12] relates to Ferret (Mustela putoris furo). The conditions noted are these: Oral.
For data set [13], the system named is Brushtail Possum (Trichosaurus vulpecula). Conditions: Oral.
Data set [14] deals with Cat (Fellis libyca domestica). Conditions: Oral.
The test system of data set [15] is Starling (Sturnus vulgaris). Conditions: Oral.
The test system of data set [16] is Blackbird (red-wing) (Agelaius phoenicus). The conditions noted are these: Oral.
Data set [17] relates to Coyote (Canis latrans). The conditions noted are these: Oral.
Data set [18] has as its system Guinea pig (female) (Cavellio porcinus). Conditions: Oral.
In data set [19] the test system is Quail (Coturnix coturnix). Conditions: Oral.
Data set [20] has as its system Skunk (Mephitis mephitis). Conditions: Oral.
Data set [21] has as its system Stoats (Mustela erminea). The conditions noted are these: Oral.

The structures appear in SMILES notation. Like-named read-outs stand apart in the source and are kept apart here.

Take `CCC(=O)c1ccc(N)cc1` [p-aminopropiophenone]: the median lethal dose (LD50) in [1] is over 50 mg/kg; in data set [2], 89 mg/kg; in [3], 100 mg/kg; in data set [4], 10 mg/kg; in data set [5], 177 mg/kg; in data set [6], 178 mg/kg. Also, the LD50 in [7] is 14.1 mg/kg; in [8] it was 142 mg/kg; in data set [9] it was over 178 mg/kg; in data set [10] (Mouse (female), I.V.) it was 200 mg/kg; in [10] (Mouse (female), Oral), >5,000 mg kg^−1; in data set [10] (Mouse (male), I.V.) it was 145 mg/kg. The 50% lethal dose (LD50) was 233 mg/kg in data set [10] (Mouse (sex not given), Oral); 38 mg/kg in [11]; 29 mg/kg in data set [12]; 500 mg/kg in data set [13]; 5.6 mg/kg in [14]; over 316 mg/kg in data set [15]. Further, the LD50 is 133 mg/kg in [16]; 5.6 mg/kg in [17]; 1020 mg/kg in [18]; over 316 mg/kg in [19]; over 400 mg/kg in [20]; 9.3 mg/kg in data set [21].
